# Results: the supplement of paper PMC11451515
# Test system: NOMO1
# Assay: cell viability relative to DMSO control; higher = less cytotoxic
# Conditions: 48 h
# Procedure, shortened: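 NOMO1 or SEM (500 cells/well) or P12-Ichikawa (1000 cells/well) leukemia cells were adapted for at least four passages in each medium. They were seeded in 1536-well plates (5 μl) and pin-dosed with library compounds in DMSO over an 11-point threefold series, 47 μM to 0.79 nM. CellTiter-Glo One luminescence was read after 48 h at 37°C. Viability is the per-plate percentage relative to DMSO wells, with cell-free wells as background.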
# [1] = HPLM + 10% dialyzed FBS, 0.000781 µM
# [2] = HPLM + 10% dialyzed FBS, 0.00234 µM
# [3] = HPLM + 10% dialyzed FBS, 0.00702 µM
# [4] = HPLM + 10% dialyzed FBS, 0.0211 µM
# [5] = HPLM + 10% dialyzed FBS, 0.0632 µM
# [6] = HPLM + 10% dialyzed FBS, 0.19 µM
# [7] = HPLM + 10% dialyzed FBS, 0.569 µM
# [8] = HPLM + 10% dialyzed FBS, 1.71 µM
# [9] = HPLM + 10% dialyzed FBS, 5.12 µM
# [10] = HPLM + 10% dialyzed FBS, 15.4 µM
# [11] = HPLM + 10% dialyzed FBS, 46.1 µM
# [12] = RPMI 5 mM glucose + 10% FBS, 0.000781 µM
# [13] = RPMI 5 mM glucose + 10% FBS, 0.00234 µM
# [14] = RPMI 5 mM glucose + 10% FBS, 0.00702 µM
# [15] = RPMI 5 mM glucose + 10% FBS, 0.0211 µM
# [16] = RPMI 5 mM glucose + 10% FBS, 0.0632 µM
# [17] = RPMI 5 mM glucose + 10% FBS, 0.19 µM
# [18] = RPMI 5 mM glucose + 10% FBS, 0.569 µM
# [19] = RPMI 5 mM glucose + 10% FBS, 1.71 µM
# [20] = RPMI 5 mM glucose + 10% FBS, 5.12 µM
# [21] = RPMI 5 mM glucose + 10% FBS, 15.4 µM
# [22] = RPMI 5 mM glucose + 10% FBS, 46.1 µM
# [23] = RPMI 5 mM glucose + 10% dialyzed FBS, 0.000781 µM
# [24] = RPMI 5 mM glucose + 10% dialyzed FBS, 0.00234 µM
# [25] = RPMI 5 mM glucose + 10% dialyzed FBS, 0.00702 µM
# [26] = RPMI 5 mM glucose + 10% dialyzed FBS, 0.0211 µM
# [27] = RPMI 5 mM glucose + 10% dialyzed FBS, 0.0632 µM
# [28] = RPMI 5 mM glucose + 10% dialyzed FBS, 0.19 µM
# [29] = RPMI 5 mM glucose + 10% dialyzed FBS, 0.569 µM
# [30] = RPMI 5 mM glucose + 10% dialyzed FBS, 1.71 µM
# [31] = RPMI 5 mM glucose + 10% dialyzed FBS, 5.12 µM
# [32] = RPMI 5 mM glucose + 10% dialyzed FBS, 15.4 µM
# [33] = RPMI 5 mM glucose + 10% dialyzed FBS, 46.1 µM
Structure (SMILES),cell viability [1] [%],cell viability [2] [%],cell viability [3] [%],cell viability [4] [%],cell viability [5] [%],cell viability [6] [%],cell viability [7] [%],cell viability [8] [%],cell viability [9] [%],cell viability [10] [%],cell viability [11] [%],cell viability [12] [%],cell viability [13] [%],cell viability [14] [%],cell viability [15] [%],cell viability [16] [%],cell viability [17] [%],cell viability [18] [%],cell viability [19] [%],cell viability [20] [%],cell viability [21] [%],cell viability [22] [%],cell viability [23] [%],cell viability [24] [%],cell viability [25] [%],cell viability [26] [%],cell viability [27] [%],cell viability [28] [%],cell viability [29] [%],cell viability [30] [%],cell viability [31] [%],cell viability [32] [%],cell viability [33] [%]
OC1=CC=C(C=C1)\C2=C\OC3=C(C=CC(=C3)O)C2=O,97.3,92.8,102,119,118,99.6,105,106,104,93.9,99.6,93.1,91.6,89,93.4,119,96.2,92.4,86.8,103,100,94.2,98.8,108,84.2,107,112,96.1,105,96.6,102,89,94.5
CCCCCCCCCCCCCCCCCCCCCCO,108,134,120,140,125,150,133,148,147,147,129,–,–,–,–,–,–,–,–,–,–,–,121,107,129,128,132,140,141,140,123,143,145
CCc1cc(Nc2nccc(-c3c(-c4ccc(OC)c(C(=O)Nc5c(F)cccc5F)c4)nc4ccccn34)n2)c(OC)cc1N1CCC(N2CCN([S+](C)(=O)[O-])CC2)CC1,101,95.2,103,104,105,96.7,114,120,103,96,43.2,101,91.5,92.7,95.3,94.6,102,114,106,101,111,44.6,84.8,90.1,94.8,101,104,86,102,107,109,98.3,65.5
CCc1cncnc1N1CCN(Cc2nc3cc(C(F)(F)F)ccc3[nH]2)CC1,105,114,114,98.5,108,97.7,97.6,94,107,92,64.2,95.4,87.8,99.5,93.1,90.8,93.4,90.1,90.1,81.3,79.9,74.7,95.8,82.6,93.8,100,95.3,85.5,88.8,97.4,88.6,75.8,70.3
C[C@H]1[C@H](NC(=O)/C(=N/OC(C)(C)C(=O)O)c2csc(N)n2)C(=O)N1[S+](=O)([O-])O,98.5,98,98.9,111,108,110,113,88.2,102,85.3,90.4,105,98.3,101,108,107,105,107,104,92.3,108,103,94.2,101,94.1,92.3,97.3,94.7,91.7,99.2,85.2,91.1,83.3
CN[S+](=O)([O-])Cc1ccc2[nH]cc(CCN(C)C)c2c1,116,124,118,124,130,130,148,136,128,135,122,106,124,110,118,110,120,117,109,129,139,111,113,118,114,122,118,123,122,120,118,129,129
COc1nccc(-c2c(-c3ccc(F)cc3)ncn2C2CCNCC2)n1,95.7,121,124,127,120,121,119,94.4,107,78.3,49.4,45.8,120,115,101,113,107,100,112,96.7,97.6,74,44.9,119,97.3,110,106,104,108,104,101,99.1,68
CNC(=O)c1ccc(-c2cnc3ncc(Cc4ccc5ncccc5c4)n3n2)cc1F,113,127,120,103,132,116,131,133,125,117,135,–,–,–,–,–,–,–,–,–,–,–,116,124,138,131,126,136,129,136,130,137,145
